Like-named read-outs stand apart in the source and are kept apart here.
Tests used:
[1] = system: RMUG-S ovarian cancer xenograft; assay: RMUG-S ovarian cancer CDX model; format: in vivo, NOD SCID or NOG mice
Description: The CDX model was established by subcutaneous inoculation of 1×10^7 viable RMUG-S cells into the right flank of NOD SCID or NOG mice. […] Compound 1 was administered to mice orally either once daily (QD) or twice daily (BID) for 32-50 days. Compound 1 was administered to mice continuously throughout the treatment period (7/7 days) or intermittently from Monday-Friday (5/7 days), or Monday-Thursday (4/7 days) during the treatment period.
For all studies, tumor volumes and body weights were measured twice weekly. […] Statistical analysis of end-of-study mean tumor volumes for the T025OV model was performed using an unpaired t-test with Welch's correction.

5-HT2A receptor [2] = biological target: T1, 5-HT2A receptor (Homo sapiens, UniProt P28223); assay: Follow-on study, agonist and antagonist IC50; format: binding; conditions: antagonist
T1 construct: Eurofins (contract study)
T1 sequence (P28223 whole entry): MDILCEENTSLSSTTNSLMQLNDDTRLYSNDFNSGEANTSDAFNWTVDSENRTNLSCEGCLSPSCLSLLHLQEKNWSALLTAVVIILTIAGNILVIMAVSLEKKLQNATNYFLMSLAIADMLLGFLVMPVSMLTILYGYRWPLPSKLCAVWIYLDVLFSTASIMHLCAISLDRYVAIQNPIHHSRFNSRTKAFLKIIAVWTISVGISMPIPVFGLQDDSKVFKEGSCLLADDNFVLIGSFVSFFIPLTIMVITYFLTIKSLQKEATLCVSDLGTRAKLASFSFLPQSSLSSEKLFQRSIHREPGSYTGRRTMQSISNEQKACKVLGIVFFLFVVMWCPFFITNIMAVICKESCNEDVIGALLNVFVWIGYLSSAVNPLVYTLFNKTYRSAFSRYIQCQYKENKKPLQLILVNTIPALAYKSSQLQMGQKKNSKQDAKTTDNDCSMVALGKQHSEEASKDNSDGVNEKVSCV

OCM.109 cells = assay: 6-day proliferation of patient-derived ovarian cancer model, nuclei count; format: cell-based, human
Description: (§1) Ex vivo ovarian cancer models (OCMs) were established from the ascites of high-grade serous ovarian cancer patients (Coulson-Gilmer, 2021, J Exp Clin Cancer Res) and grown in vitro as 2D cell lines. OCMs were cultured in an incubator at 37° C. in 5% CO2 in OCMI media.
(§2) Compound 1 IC50 values for inhibition of cell proliferation were determined by imaging and counting the number of nuclei after compound treatment. Cells were harvested with trypsin (Thermo Fisher Scientific, Waltham, MA, USA, Cat #25200-056) and plated in Sarstedt 96-well Cell+ Tissue Culture Plates (Thermo Fisher Scientific, Waltham, MA, USA, Cat #NC9624222) at 5,000 cells/well (OCM.109) or 10,000 cells/well (OCM.246) in 100 μL of OCMI medium and incubated overnight at 37° C., 5% CO2. The following day, 1000× Compound 1 and niraparib concentration curves were prepared by serial dilution in 100% DMSO. The 1000× concentration was diluted 1:200 into growth media to generate a 5× concentration curve in 0.5% DMSO/growth medium before addition of 25 μL of the 5× compound to the wells. Control wells received 25 μL of 0.5% DMSO in media or 10 μM of Compound 1. The plates were mixed and incubated for 6 days at 37° C., 5% CO2 before fixing and staining the cells for nuclei counting as described in Example 3.
(§3) Four fields in each well were acquired using the DAPI channel at 10× magnification. Using high-content software (Cell Reporter Xpress), the nuclei were detected and counted. The percent proliferation after treatment was determined by normalizing the number of nuclei in the treated wells to the DMSO and 10 μM Compound 1 control wells. Concentration response curves and IC50 values for percent inhibition of proliferation were generated by non-linear regression analysis using a least squares fit of the log (inhibitor) vs. response-Variable slope (four parameters) curve using GraphPad Prism 10 software (GraphPad Software, Boston, MA, USA).

OCM.246 cells = assay: as above; format: cell-based, human
Description: as §1, §2, §3

[3] = system: HBCx-22 breast cancer patient-derived xenograft; assay: HBCx-22 breast cancer PDX model; format: in vivo, Hsd: Athymic Nude-Foxn1nu mice; conditions: 75 or 100 mg/kg BID, 42 days
Description: (§4) The PDX models were established by subcutaneous inoculation of HBCx-22 or HBCx-34 cells into Hsd: Athymic Nude-Foxn1nu mice. Breast tumor-bearing mice received estrogen diluted in drinking water (β-oestradiol, 8.5 mg/L) from the date of tumor inoculation until the end of the study to promote optimal growth of the ER^+ cell line. Groups of 10 animals each were established by random assignment. Tumor volumes and body weights were measured twice weekly. […] Statistical analysis of end-of-study tumor volumes was performed using the Kruskal-Wallis test with Dunn's multiple comparisons test (HBCx-34) or Brown-Forsythe test with Dunnett's T3 multiple comparisons test (HBCx-22).
(§5) Compound 1 was administered to mice orally twice daily (BID) for 42 days at a dose of 75 or 100 mg/kg based on body weight. […] Compound 1 was administered to mice orally BID for 35 days at doses of 75 or 100 mg/kg based on body weight.

OVCAR3 cells = assay: 6-day growth assay, Compound 1 in combination with camonsertib; format: cell-based; conditions: Homo sapiens, OVCAR-3, 144 h, read-out: Compound 1 IC50, 6-Day Nuclei Count
[4] = system: HBCx-34 breast cancer patient-derived xenograft; assay: HBCx-34 breast cancer PDX model; format: in vivo, Hsd: Athymic Nude-Foxn1nu mice; conditions: 75 or 100 mg/kg BID, at day 15, transient
Description: as §4, §5

DRYK1B = biological target: T2, DRYK1B (Homo sapiens, UniProt Q9Y463); assay: Eurofins protein kinase panel at 10 μM; format: biochemical
T2 construct: Eurofins (contract study)
T2 sequence (Q9Y463 whole entry): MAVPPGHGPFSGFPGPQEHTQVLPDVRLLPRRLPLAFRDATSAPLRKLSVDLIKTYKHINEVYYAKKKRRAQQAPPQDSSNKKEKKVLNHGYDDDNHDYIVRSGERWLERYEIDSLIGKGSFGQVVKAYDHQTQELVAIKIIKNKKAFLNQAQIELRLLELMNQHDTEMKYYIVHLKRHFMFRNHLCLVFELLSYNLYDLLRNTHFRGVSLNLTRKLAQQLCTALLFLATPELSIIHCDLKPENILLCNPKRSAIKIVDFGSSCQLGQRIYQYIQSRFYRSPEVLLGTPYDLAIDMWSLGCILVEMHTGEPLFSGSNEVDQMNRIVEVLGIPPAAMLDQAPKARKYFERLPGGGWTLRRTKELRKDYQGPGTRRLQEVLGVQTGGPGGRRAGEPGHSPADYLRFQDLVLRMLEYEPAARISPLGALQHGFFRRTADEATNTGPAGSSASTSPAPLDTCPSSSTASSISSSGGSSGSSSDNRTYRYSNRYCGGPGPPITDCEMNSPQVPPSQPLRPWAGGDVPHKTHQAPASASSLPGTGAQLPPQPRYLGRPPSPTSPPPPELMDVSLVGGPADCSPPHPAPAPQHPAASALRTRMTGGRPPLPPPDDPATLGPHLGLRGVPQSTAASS
Description: (§6) The inhibitory potential of Compound 1 was tested against 38 diverse non-kinase enzymes and 55 receptors, ion channels and neurotransmitter transporters in radioligand competition binding assays using mostly human recombinant proteins. […] Compound 1 was also tested against an additional panel of 468 protein kinases. Studies were performed at Eurofins (Luxembourg City, Luxembourg) using their published assay formats.

[5] = system: panel of 468 protein kinases (all other kinases tested); assay: Eurofins protein kinase panel at 10 μM; format: biochemical
Description: as §6

5-HT2A receptor [6] = biological target: T1, 5-HT2A receptor; assay: Eurofins selectivity panel, radioligand competition binding at 10 μM
Description: as §6

human A1 receptor = biological target: T3, human A1 receptor (Homo sapiens, UniProt P30542); assay: as above
T3 construct: Eurofins (contract study)
T3 sequence (P30542 whole entry): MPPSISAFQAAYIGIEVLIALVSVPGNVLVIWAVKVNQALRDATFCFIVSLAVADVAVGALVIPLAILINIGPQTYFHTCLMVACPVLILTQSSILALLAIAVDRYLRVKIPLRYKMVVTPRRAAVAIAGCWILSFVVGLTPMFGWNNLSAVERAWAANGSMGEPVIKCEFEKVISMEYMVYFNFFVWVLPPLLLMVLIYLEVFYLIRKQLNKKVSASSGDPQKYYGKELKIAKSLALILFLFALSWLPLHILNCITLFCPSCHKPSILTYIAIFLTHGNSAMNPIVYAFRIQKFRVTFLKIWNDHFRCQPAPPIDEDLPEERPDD
Description: as §6

HCC1806 xenograft = assay: HCC1806 triple negative breast cancer CDX, combination with camonsertib (RP-3500); parameters: species or system Athymic nude mice; conditions: mouse, in vivo
Description: HCC1806 cells were cultured in RPMI medium containing 10% FBS (Thermo Fisher Scientific Cat #A31605-02) and penicillin+streptomycin (Thermo Fisher Scientific Cat #15070-063). The CDX model was established by subcutaneous inoculation of 1×10^6 HCC1806 cells/mouse into the right flank of Athymic nude mice (The Jackson Laboratory, Bar Harbor, ME, USA, Cat #002019). […] Compound 1 was administered to mice at 200 mg/kg to mice orally once daily from Monday through Friday throughout the treatment period and camonsertib (RP-3500) was administered at 15 mg/kg orally once daily from Monday through Wednesday throughout the treatment period (Table 11).
Tumor volumes and body weights were measured twice weekly. […] Statistical analysis of end-of-study tumor volumes relative to the vehicle group tumor volume was performed using Kruskal-Wallis Anova test with Dunn's multiple comparisons test.

[7] = Homo sapiens, 144 h, read-out: IC50 inhibition of proliferation

## [2H]C([2H])(c1cnn(C)c1)N1C(=O)c2cc(S(=O)(=O)NC3(C)CC3)ccc2N2C1=NC[C@H]2C [Compound 1, (R)-1-methyl-4-((1-methyl-1H-pyrazol-4-yl)methyl-d2)-N-(1-methylcyclopropyl)-5-oxo-1,2,4,5-tetrahydroimidazo[1,2-a]quinazoline-7-sulfonamide]
[1]; first study, highest dose group
  mean body weight gain over the treatment period: 5%
[1]; second study
  tolerability (body weight): generally well tolerated
5-HT2A receptor [2]
  IC50: 21 µM
5-HT2A receptor [2]; read-out: dissociation constant (KB)
  Kb: 4.2 µM
OCM.109 cells; [7]
  IC50: 0.051 µM
OCM.109 cells; OCM.109
  potency better than niraparib: > 80 fold
OCM.246 cells; [7]
  IC50: 0.162 µM
OCM.246 cells; OCM.246
  potency better than niraparib: > 20 fold
[3]
  tolerability (body weight): generally well tolerated
OVCAR3 cells; camonsertib 0.032 nM
  IC50: 39 µM
OVCAR3 cells; camonsertib 0.32 nM
  IC50: 44 µM
OVCAR3 cells; camonsertib 3.2 nM
  IC50: 29 µM
OVCAR3 cells; camonsertib 10 nM
  IC50: 12 µM
OVCAR3 cells; camonsertib 32 nM
  IC50: 2 µM
OVCAR3 cells; camonsertib 100 nM
  IC50: 0.27 µM
[4]
  maximum decrease in body weight: approximately 11%
DRYK1B
  inhibition at 10 µM: 51%
[5]
  % inhibition: < 50%
5-HT2A receptor [6]
  inhibition at 10 µM: 64%
Human A1 receptor
  inhibition at 10 µM: 67%
HCC1806 xenograft
  body weight change during the treatment period: body weight gains

Source: patent US20260272936A1, “TREATMENT OF CANCER WITH A PARG INHIBITOR” (858 Therapeutics, Inc., priority 2023, published 2026)
